{"source": "patent US20250144107A1", "about": "“USE OF A PIKFYVE INHIBITOR IN COMBINATION WITH IMMUNOTHERAPY” (The Regents of the University of Michigan, priority 2023, published 2025)", "system": "B16F10-OVA tumors", "experiment": "B16F10-OVA tumor model with PolyI:C adjuvant", "format": "in vivo, mice", "description": "FIG. 16F is a series of four line graphs of the Individual growth curves of subcutaneous B16F10-OVA tumor volume following 21 days of pre-treatment with vehicle versus apilimod, 30 mg/kg daily, with or without subcutaneous injection of water versus PolyI:C, 100 μg on Day 1 and Day 14.\nFIG. 16H is a series of four line graphs of the Individual growth curves of subcutaneous B16F10-OVA tumor volume in mice treated with vehicle or apilimod, 30 mg/kg daily, with or without a subcutaneous injection of water versus PolyI:C, 100 μg once weekly.\nFIG. 26I is a line graph of the subcutaneous tumor volume of B16F10-OVA tumors following 21 days of pre-treatment with vehicle versus apilimod, 30 mg/kg×5 days/week, with or without subcutaneous injection of water versus PolyI:C, 100 μg on Day 1 and Day 14.\nFIG. 26J is a line graph of the subcutaneous tumor volume of B16F10-OVA tumors in mice treated with vehicle or apilimod, 30 mg/kg×5 days/week, with or without subcutaneous injection of water versus PolyI:C, 100 μg once weekly."}
{"smiles": "Cc1cccc(/C=N/Nc2cc(N3CCOCC3)nc(OCCc3ccccn3)n2)c1", "note": "[apilimod, N-[(E)-(3-methylphenyl)methylideneamino]-6-morpholin-4-yl-2-(2-pyridin-2-ylethoxy)pyrimidin-4-amine]", "values": [{"measurement": "subsequent tumor growth", "setting": "21 days pre-treatment, combination of apilimod and PolyI:C, vs control or either agent alone", "result": "decrease"}, {"measurement": "tumor growth inhibition", "setting": "treatment after inoculation, combination of apilimod and PolyI:C", "result": "further potentiated"}, {"measurement": "tumor growth", "setting": "treatment after inoculation, each agent alone", "result": "modest tumor growth inhibition"}]}
